Measurements reported in publication PMC3338516 (PLoS ONE, 2012).
Where two headings read alike, the source gives them in different places. Ends that are not written are not given here.

Assays:
[1] = molecular target: T1, HLA-B0702 (Homo sapiens, UniProt P01889); assay: Competition-based cellular peptide binding assay, HLA-B0702; settings: for IC50: mild-acid-treated B-LCLs, 150 nM fluorescent reference peptide […], overnight 4°C, flow cytometry, mean of two independent experiments
T1 construct: endogenous in cells
Method: (§1) To test binding affinity of eluted and predicted peptides to HLA-I, competition-based cellular peptide binding assays were performed as described earlier. In short, B-LCLs were treated with a mild acid (1∶1 mixture of 0.263M C6H8O7*H2O and 0.126M Na2HPO4*2H2O) for 1 min to remove the naturally HLA-I bound peptides. Cells were buffered with cold IMDM containing 2% FCS immediately thereafter and resuspended at a concentration of 4×10^5 cells/ml in 2% FCS and 1.5 µg/ml human β2m (Sigma-Aldrich). Then, 4×10^4 cells/well were incubated with 150 nM of fluorescently labeled reference peptide and a serial dilution of one of the eluted or predicted peptides. The following HLA-I allele-restricted reference peptides were used: […] (for HLA-A0201), […] (for HLA-A0301), […] (for HLA-B0702) and […] (for HLA-B4002), each containing a fluorescent label bound to the cysteine residue. After overnight incubation at 4°C, cells were washed twice in PBS supplemented with 1% BSA and fixed in 0.5% paraformaldehyde. Cells were analyzed with CellQuestPro or FlowJo software (Tree Star, Ashland, OR, USA). IC50 values were defined with GraphPad Prism 4.02 (GraphPad Software Inc., La Jolla, USA) using the following formula: Y = Bmax*X/(IC50+X), in which Bmax is the maximal binding capacity of the positive control peptide, X the concentration of peptide tested and IC50 the concentration of peptide needed to reach half-maximal binding.

[2] = molecular target: T2, HLA-A0201 (Homo sapiens, UniProt P04439, D140Y/D185E/D98H/E176V/E277Q/G131W/G231S/I119V/I121R/I166T/I218V/L300P/L318F/N151K/N90K/P208A/P217A/Q86G/Q94H/R138H/R169H/T345S); assay: Competition-based cellular peptide binding assay, HLA-A0201; settings: for IC50: mild-acid-treated B-LCLs, 150 nM fluorescent reference peptide […], overnight 4°C, flow cytometry, mean of two independent experiments, read-out: HLA-A201 IC50
T2 construct: endogenous in cells
Method: To test binding affinity of eluted and predicted peptides to HLA-I, competition-based cellular peptide binding assays were performed as described earlier. […] Cells were buffered with cold IMDM containing 2% FCS immediately thereafter and resuspended at a concentration of 4×10^5 cells/ml in 2% FCS and 1.5 µg/ml human β2m (Sigma-Aldrich). […] The following HLA-I allele-restricted reference peptides were used: […] (for HLA-B0702) and […] (for HLA-B4002), each containing a fluorescent label bound to the cysteine residue. After overnight incubation at 4°C, cells were washed twice in PBS supplemented with 1% BSA and fixed in 0.5% paraformaldehyde. Cells were analyzed with CellQuestPro or FlowJo software (Tree Star, Ashland, OR, USA).

[3] = molecular target: T3, HLA-B4002 (Homo sapiens, UniProt P01889, A65T/A93T/A95T/D138N/D201E/D98Y/E176V/E204Q/E69K/K202T/N87E/Q56L/Q94N/R180L/S48T/Y33H/Y91S); settings: Figure 3 legend; positive control peptide; cited from earlier work
Description: (§2) (A0201 peptide), […] (A0301 peptide), SPSVDK ...

[4] = molecular target: T3, HLA-B4002; assay: Competition-based cellular peptide binding assay, HLA-B4002; settings: Table 2; mild-acid-treated B-LCLs, 150 nM fluorescent reference peptide […], overnight 4°C, flow cytometry; mean of two independent experiments
Method: as §1

[5] = molecular target: T4, HLA-A0301 (Homo sapiens, UniProt P04439); assay: Competition-based cellular peptide binding assay, HLA-A0301; settings: Table 2; mild-acid-treated B-LCLs, 150 nM fluorescent reference peptide […], overnight 4°C, flow cytometry; mean of two independent experiments
T4 construct: endogenous in cells
Method: as §1

[6] = molecular target: T1, HLA-B0702; settings: Figure 3 legend; positive control peptide; cited from earlier work
Description: as §2

[7] = Table 1, class by IC50 cut-off values
[8] = Table 1, concentration for half maximal competition

Sequence | IC50 ([1]; Table 1) [µM] | IC50 [2, 8] [µM] | IC50 ([1]; Table 2) [µM] | IC50 ([2]; Table 2) [µM] | IC50 [4] [µM] | IC50 [5] [µM] | also measured
ETIDWKVFESW [Peptide 5] | > 100 | > 100 |  |  |  |  | HLA-B0702 Affinity [1, 7]: – (no binding, >100 µM); HLA-A201 Affinity [2, 7]: – (no binding, >100 µM)
GEFGGFGSV |  |  |  |  |  |  | IC50 [3]: 0.2 µM
KMRMATPLL |  |  | 0.47 | 10.9 | 0.44 | 6.43 | 
LLAGQATT [Peptide 2] | 40.9 | > 100 |  |  |  |  | 
LPMGALPQGPM [Peptide 4] | 0.41 | > 100 |  |  |  |  | 
RMATPLLMQA |  |  | 7.75 | 8.08 | 2.05 | 2.45 | 
RMATPLLMQAL [RMATPLLMQAL] |  |  | 1.85 | 4.49 | 0.48 | 4.28 | 
RMATPLLMQALPM [Peptide 3] | 0.36 | 13.7 |  |  | 3.43 | 3.35 | 
SPSVDKARAEL |  |  |  |  |  |  | IC50 [6]: 0.7 µM
SRGALYTGFSIL [Peptide 1] | 1.39 | 10.9 |  |  |  |  | 
